Data set [1] in a line: In vivo receptor occupancy at muscarinic M1 receptor in myelin oligodendrocyte glycoprotein (MOG)-induced experimental autoimmune encephalitis C57BL/6 mouse model assessed as decrease in occupancy at 30 mg/kg, po measured after 24 hrs. Format: functional.
In data set [2] the target is Voltage-gated inwardly rectifying potassium channel KCNH2 (Homo sapiens, UniProt Q12809). Kind of data set: Inhibition of human ERG expressed in HEK293 cells at 3 uM by patch clamp assay. The settings on record: hek293, 3 µM. Format: cell-based.
The nature of data set [3]: Brain to plasma permeability coefficient, Kp of the compound in rat at 10 mg/kg, po measured after 2 hrs by LC-MS/MS. Format: ADME, organism-based. As to conditions: read-out: K(p,uu,brain).
Data set [4] can be described thus: Fraction unbound in rat plasma at 10 mg/kg, po measured by LC-MS/MS. Format: ADME, organism-based.
The nature of data set [5]: Plasma concentration in rat at 10 mg/kg, po measured after 2 hrs by LC-MS/MS. The format is ADME, organism-based.
A short description of data set [6]: Metabolic stability in rat liver microsomes assessed as parent compound remaining at 1 uM measured at 15 mins by LC-MS/MS analysis. The format is ADME, Microsome. As to conditions: read-out: Stabilty.
Data set [7] concerns the target T1, Muscarinic acetylcholine receptor M1 (Homo sapiens, UniProt P11229).
T1 sequence (P11229 whole entry): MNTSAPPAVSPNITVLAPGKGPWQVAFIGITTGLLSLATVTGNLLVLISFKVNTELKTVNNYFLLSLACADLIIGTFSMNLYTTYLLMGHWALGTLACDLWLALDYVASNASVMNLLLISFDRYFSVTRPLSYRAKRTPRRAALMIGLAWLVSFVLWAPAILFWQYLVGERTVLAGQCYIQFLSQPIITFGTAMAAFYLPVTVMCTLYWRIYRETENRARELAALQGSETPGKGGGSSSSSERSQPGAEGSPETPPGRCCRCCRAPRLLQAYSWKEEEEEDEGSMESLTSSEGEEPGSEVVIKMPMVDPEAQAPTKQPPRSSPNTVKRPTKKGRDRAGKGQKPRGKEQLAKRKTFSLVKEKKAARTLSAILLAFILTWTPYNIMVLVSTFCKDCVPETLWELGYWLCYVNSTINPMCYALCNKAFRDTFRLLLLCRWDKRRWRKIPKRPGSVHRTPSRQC
Kind of data set: Antagonist activity at human recombinant muscarinic receptor M1 expressed in CHO-K1 cells assessed as EC80 acetylcholine-induced calcium flux incubated for 30 mins. Format: functional, cell-based. The settings on record: read-out: IC50.

Data set [8] in a line: Fraction unbound rat plasma at 10 mg/kg, po measured after 2 hrs by LC-MS/MS. Format: ADME, organism-based. As to conditions: in vivo.

The values that follow come from ChEMBL document CHEMBL4673395, “Discovery of PIPE-359, a Brain-Penetrant, Selective M Receptor Antagonist with Robust Efficacy in Murine MOG-EAE” (ACS Med Chem Lett, 2021).

Sequence of Voltage-gated inwardly rectifying potassium channel KCNH2 (Q12809 whole entry): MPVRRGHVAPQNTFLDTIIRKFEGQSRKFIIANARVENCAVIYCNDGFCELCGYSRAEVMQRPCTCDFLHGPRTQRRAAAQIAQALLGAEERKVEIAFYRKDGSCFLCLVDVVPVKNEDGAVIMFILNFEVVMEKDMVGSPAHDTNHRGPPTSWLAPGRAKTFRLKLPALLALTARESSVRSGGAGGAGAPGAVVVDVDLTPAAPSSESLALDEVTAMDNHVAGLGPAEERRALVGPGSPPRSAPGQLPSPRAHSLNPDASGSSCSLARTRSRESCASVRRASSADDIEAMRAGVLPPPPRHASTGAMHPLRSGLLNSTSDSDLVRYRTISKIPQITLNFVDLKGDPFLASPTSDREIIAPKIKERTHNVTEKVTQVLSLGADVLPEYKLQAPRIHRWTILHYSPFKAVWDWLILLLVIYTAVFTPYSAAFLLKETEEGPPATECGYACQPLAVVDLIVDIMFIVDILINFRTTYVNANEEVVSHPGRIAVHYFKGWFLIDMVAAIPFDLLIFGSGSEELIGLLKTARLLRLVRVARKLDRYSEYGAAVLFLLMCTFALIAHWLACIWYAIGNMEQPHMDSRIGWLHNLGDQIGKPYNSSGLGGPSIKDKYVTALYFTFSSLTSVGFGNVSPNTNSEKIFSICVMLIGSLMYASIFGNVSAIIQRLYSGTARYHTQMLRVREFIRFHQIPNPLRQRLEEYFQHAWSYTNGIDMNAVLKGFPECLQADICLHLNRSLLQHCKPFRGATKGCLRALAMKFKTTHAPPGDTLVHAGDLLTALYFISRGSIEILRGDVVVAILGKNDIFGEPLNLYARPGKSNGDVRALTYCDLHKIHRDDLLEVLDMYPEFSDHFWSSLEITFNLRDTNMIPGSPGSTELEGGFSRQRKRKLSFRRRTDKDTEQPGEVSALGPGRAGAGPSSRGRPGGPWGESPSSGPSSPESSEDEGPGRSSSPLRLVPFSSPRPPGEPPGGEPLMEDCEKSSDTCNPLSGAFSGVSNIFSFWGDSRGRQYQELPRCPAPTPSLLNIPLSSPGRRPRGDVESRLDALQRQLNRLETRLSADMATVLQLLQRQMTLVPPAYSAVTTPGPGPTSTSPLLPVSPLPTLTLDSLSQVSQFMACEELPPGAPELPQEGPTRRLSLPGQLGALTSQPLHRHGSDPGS

Consider `N#Cc1ccc(N2CCN(C(=O)CCS(=O)(=O)c3cccc4ncsc34)CC2)nc1`, for which, in data set [1], the Occ is recorded as 50%. The compound further had an inhibition (INH) in data set [2] of 69%. Moreover, the Kp uu at 2 h in data set [3] came to 0.17. The compound also gave a free fraction (fraction unbound) in data set [4] of 0.15. The same compound registered a concentration at 2 h in data set [5] of 89 nM. For the same compound, the remaining at 0.25 h, 1 µM in data set [6] turned out to be 59%. In data set [7], the IC50 is 5.8 nM. In addition, the “Cp(f)” value in data set [8] amounted to 13 nM.
